We go through two compounds from article PMC8998611, “Identification of Novel GSK-3β Hits Using Competitive Biophysical Assays” (International Journal of Molecular Sciences, 2022).

Test [1] has as its target T1, GSK-3β (Homo sapiens, UniProt P49841). Kind of test: GSK-3β kinetics, Lineweaver-Burk analysis of competition with ATP or substrate ULight-GS. The test is classed as biochemical. Details: made in house; host or cells: Sf9 cells. The settings on record: compound 20 and 50 μM; for mechanism of inhibition with respect to substrate ULight-GS: ATP 1 μM, ULight-GS 12.5-200 nM; for mechanism of inhibition with respect to ATP: ATP 0.25-4 μM, ULight-GS 50 nM. The method, then:
First, under a constant concentration of the substrate ULight-GS (50 nM), ATP concentrations were varied from 0.25 to 4 μM, and G5 and G12 were tested at 20 and 50 μM. […] Additionally, G5 and G12 (at 20 and 50 μM) were tested by keeping the ATP concentration constant (1 μM) and varying the substrate ULight-GS concentration from 12.5 to 200 nM.
To study the GSK-3β kinetics, the reaction mixture, varying concentrations of ATP (0.25–0.5–1–2–4 μM) or substrate (12.5–25–50–100–200 nM) versus test samples (20 and 50 μM), were incubated for 5, 15, 30, and 60 min at 23 °C, followed by the addition of the 6 mM EDTA and the anti-phospho-GS antibody according to the manufacturer’s protocol.
For GSK-3β kinetic experiments, initial velocities (V0) were determined and fitted to the Michaelis–Menten equation. To directly visualize G5 and G12 inhibition mode, a Lineweaver–Burk plot was generated according to the values obtained from the Michaelis–Menten analysis. […] Graphs and data analysis were performed using GraphPad Prism 8 software.

Test [2] addresses T1, GSK-3β. Kind of test: Thermal shift assay with SYPRO Orange. The test is classed as binding. Details: made in house; host or cells: Sf9 cells. Particulars: GSK-3β 5 μM; normalized to DMSO effect. The method, then:
Given the poor inhibitory activity of compounds B3 and E2, only G5 and G12 were selected for further biophysical and structural investigations. […] A Tm increase of 3.2 °C and 2.5 °C was observed upon binding of G5 and G12, respectively. Reported effects were compared and normalized to the effect induced by DMSO alone on GSK-3β denaturation. The same experiments were also performed in the presence of AMP-PNP to unravel a possible effect of this molecule on protein denaturation.
Thermal shift experiments were conducted in technical triplicates and recorded with a ViiA7^TM real-time PCR instrument. The analysis protocol of Partch and colleagues developed for fast stability screening of buffers and interactors for recombinant proteins was followed, [42]. Briefly, the recombinant protein GSK-3β at a final concentration of 5 μM was mixed with the dye SYPRO Orange (2× final concentrated) in the selected assay buffer (NaCl 300 mM, Hepes pH 7.5 20 mM, MgCl2 5 mM, DTT 1 mM) and incubated with hit compounds at two different concentrations, 200 and 500 μM. Experiments were also performed on GSK-3β also in the presence of AMP-PNP at a final concentration of 200 μM. […]
Output data were collected and analyzed with Excel software and Graphpad Prism 7.

Another test concerns the target T2, p70S6K (Homo sapiens, UniProt P23443).
T2 construct: purchased Eurofins (Kinase Diversity Panel service)
Kind of test: Eurofins Kinase Diversity Panel, p70S6K. The test is classed as biochemical. The settings on record: 20 µM compound; ATP at Km ± 15 µM; read-out: inhibitory effect on p70S6K. The method, then:
(§1) To further characterize the inhibitory activity of the two selected fragments, the selectivity of G5 and G12 towards a panel of 58 kinases of the humane proteome was evaluated using the “Kinase screening and profiling” service of Eurofins, Luxembourg (Kinase Diversity Panel). […] Results are reported in Supplementary Figures S2 and S3.

Another test deals with T3, SAPK2a (Homo sapiens, UniProt Q16539).
T3 construct: purchased Eurofins (Kinase Diversity Panel service)
T3 sequence (Q16539 whole entry): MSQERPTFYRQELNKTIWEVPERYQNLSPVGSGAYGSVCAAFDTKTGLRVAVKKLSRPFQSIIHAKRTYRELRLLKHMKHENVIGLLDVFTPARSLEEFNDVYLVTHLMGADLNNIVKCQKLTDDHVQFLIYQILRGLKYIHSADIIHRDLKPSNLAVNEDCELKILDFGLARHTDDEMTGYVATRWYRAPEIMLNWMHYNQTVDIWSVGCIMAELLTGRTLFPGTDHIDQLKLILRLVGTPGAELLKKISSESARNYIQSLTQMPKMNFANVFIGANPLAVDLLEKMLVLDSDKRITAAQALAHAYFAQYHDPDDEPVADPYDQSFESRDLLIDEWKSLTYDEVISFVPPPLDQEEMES
Nature of the test: Eurofins Kinase Diversity Panel, SAPK2a. The test is classed as biochemical. The settings on record: 20 µM compound, ATP at Km ± 15 µM. The procedure: as §1

In test [3] the target is T1, GSK-3β. Kind of test: 19F T2 filter NMR ligand-based binding experiments. Further details: made in house; host or cells: Sf9 cells. Particulars: in presence of GSK-3β and 1 mM or 3 mM AMP-PNP. The procedure: GSK-3β was pre-incubated at room temperature for 10 min in the presence of 1 mM AMP-PNP before addition to the mixtures. […] On the contrary, NMR signals of the non-binding molecules were not affected by the presence of the target protein. Molecules selected from this first NMR screening were then tested as a single compound under the same screening conditions in the presence of two non-binding compounds as negative controls. The promising compounds, still showing binding to GSK-3β when tested as singles, were retested also in the presence of 3 mM AMP-PNP (among these, G5 and G12, whose NMR spectra are reported in Figure 2a,b, respectively). […] These hits were then further analyzed and characterized through different biophysical approaches.
All NMR screening experiments were recorded at 298 K with a Bruker FT NMR Avance III 600 MHz spectrometer, equipped with a 5 mm CryoProbe™ QCI ^1H/^19F–^13C/^15N–D with an automatic sample changer SampleJet™ with temperature control. All GSK-3β experiments were performed at low enzyme concentration (750 nM/1 μM) in 60 mM Hepes pH 7.5, 25 mM NaCl, 10 mM MgCl2, 2 mM TCEP, 8% D2O (for lock signal), 0.003% Triton X-100 (for the coating of NMR tube wall). […]

The structures appear in SMILES notation.

T1 sequence (P49841 whole entry): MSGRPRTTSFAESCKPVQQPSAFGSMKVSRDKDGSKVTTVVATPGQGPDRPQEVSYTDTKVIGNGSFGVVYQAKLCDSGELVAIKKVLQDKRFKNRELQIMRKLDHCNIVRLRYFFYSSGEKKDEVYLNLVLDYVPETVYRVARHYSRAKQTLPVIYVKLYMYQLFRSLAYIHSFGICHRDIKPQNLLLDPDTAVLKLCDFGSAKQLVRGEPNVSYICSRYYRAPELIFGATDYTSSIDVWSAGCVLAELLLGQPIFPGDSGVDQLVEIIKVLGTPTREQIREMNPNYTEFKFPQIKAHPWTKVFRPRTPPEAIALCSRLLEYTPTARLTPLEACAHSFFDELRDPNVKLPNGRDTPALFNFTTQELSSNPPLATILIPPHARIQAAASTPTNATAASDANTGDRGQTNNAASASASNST
T2 sequence (P23443 whole entry): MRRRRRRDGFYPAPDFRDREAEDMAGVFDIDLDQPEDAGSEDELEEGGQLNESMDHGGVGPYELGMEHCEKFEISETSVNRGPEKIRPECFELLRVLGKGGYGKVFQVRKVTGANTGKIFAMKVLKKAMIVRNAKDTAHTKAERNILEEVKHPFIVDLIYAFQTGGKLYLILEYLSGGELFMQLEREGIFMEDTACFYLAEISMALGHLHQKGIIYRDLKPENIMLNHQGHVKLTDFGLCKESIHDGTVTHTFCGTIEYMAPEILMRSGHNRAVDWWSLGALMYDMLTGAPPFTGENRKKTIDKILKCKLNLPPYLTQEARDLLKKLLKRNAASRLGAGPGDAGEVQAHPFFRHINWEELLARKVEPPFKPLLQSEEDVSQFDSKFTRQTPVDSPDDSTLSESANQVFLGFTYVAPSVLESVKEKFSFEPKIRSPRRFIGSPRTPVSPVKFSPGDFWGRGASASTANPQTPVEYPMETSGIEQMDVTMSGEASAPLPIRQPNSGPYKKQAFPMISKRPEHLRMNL

`CS(=O)(=O)N1CC(c2nc(N)ncc2-c2ccc(F)cc2)C1` [G5]: at GSK-3β [1], the “mechanism of inhibition with respect to substrate ULight-GS” value is “mixed competition mechanism” and the “mechanism of inhibition with respect to ATP” value is reported as “ATP competitive”. Further, the “Tm increase upon binding” value on GSK-3β [2] came out at 3.2 °C. Also, on p70S6K, the inhibition at 20 µM stood at 26%. On SAPK2a (read-out: inhibitory effect on SAPK2a), the inhibition at 20 µM was found to be 19%. For the same compound, on GSK-3β [3], the “binding by 19F T2 filter NMR (line broadening of signal)” value was “strong line broadening”.
With `O=C(Nc1ccccn1)C1CCN(C(=O)CCc2ccccc2F)C1` (stereo not drawn) [G12], at GSK-3β [1], the “mechanism of inhibition with respect to substrate ULight-GS” value is on record as “did not compete with the substrate” and the “mechanism of inhibition with respect to ATP” value is recorded as “ATP competitive”. Also, the “Tm increase upon binding” value on GSK-3β [2] turned out to be 2.5 °C. On p70S6K, the inhibition at 20 µM was found to be 15%. The “inhibitory effect on SAPK2a” value against SAPK2a was “no inhibitory effect”. For the same compound, the “binding by 19F T2 filter NMR (line broadening of signal)” value on GSK-3β [3] is “strong line broadening”.
